One experiment has as its system SK-MEL-5. As to the kind of experiment: Cytotoxicity against human SK-MEL-5 cells. The class given is functional, cell-based.
For the next experiment, the system named is MCF7. Description: Cytotoxicity against human MCF7 cells. It is filed as functional, cell-based.
In a further experiment the test system is CCRF-CEM. Description: Cytotoxicity against human CCRF-CEM cells. The class given is functional, cell-based.
A further experiment relates to HCT-116. Description: Cytotoxicity against human HCT116 cells. The class given is functional, cell-based.
The subject of a further experiment is Escherichia coli. Description: Antimicrobial activity against Escherichia coli. It is filed as functional.
For a further experiment, the system named is Staphylococcus aureus. Description: Antimicrobial activity against Staphylococcus aureus. It is filed as functional.
In the next experiment the test system is Pseudomonas aeruginosa. As to the kind of experiment: Antimicrobial activity against Pseudomonas aeruginosa. The class given is functional.

These results are taken from ChEMBL document CHEMBL1149728, “11-oxoaerothionin: a cytotoxic antitumor bromotyrosine-derived alkaloid from the Caribbean marine sponge Aplysina lacunosa” (J Nat Prod, 1992).

Molecules are shown by their SMILES. Values after ≈ are worked out from the molar mass of the structure shown.

Regarding `COC1=C(Br)[C@@H](O)[C@]2(C=C1Br)CC(C(=O)NCCC(=O)CNC(=O)C1=NO[C@]3(C=C(Br)C(OC)=C(Br)[C@@H]3O)C1)=NO2`, the half-maximal inhibitory concentration (IC50) came out at 10 µg/mL (≈ 12 µM) with SK-MEL-5, 20 µg/mL (≈ 24 µM) in the experiment with MCF7, 3.5 µg/mL (≈ 4.21 µM) with CCRF-CEM and 10 µg/mL (≈ 12 µM) in the experiment on HCT-116. The figures for the MIC against Escherichia coli, in the experiment on Staphylococcus aureus and against Pseudomonas aeruginosa were 10 µg/mL (≈ 12 µM), 30 µg/mL (≈ 36.1 µM) and 30 µg/mL (≈ 36.1 µM), respectively.
